Values quoted from earlier work as cited in patent US20240360088A1, “WATER-SOLUBLE NERVE DYES FOR IN VIVO NERVE-SPECIFIC IMAGING” (Oregon Health & Science University, priority 2021, published 2024).

Tested on: rodent nerves
Settings: for nerve specificity: direct and systemic administration, preclinical

SMILES	fluorescence signal for real time imaging (co-solvent formulation as vehicle for intravenous injection)	nerve specificity	nerve-specific signal (systemic administration)
CCNc1cc2oc3cc(=[N+](CC)CC)ccc-3nc2cc1C [Comparative Example No. 1, 3-(diethyl-14-azaneylidene)-N-ethyl-8-methyl-3H-phenoxazin-7-amine]	adequate fluorescence signal	high nerve specificity	
CC/N=c1/cc2oc3cc(NCC)c(C)cc3nc-2cc1C [Oxazine 4]		high nerve specificity	nerve-specific signal following systemic administration in all rodent nerves
